Experimental findings from patent publication US6544985B2, “Dihydro-benzo [b][1,4]diazepin-2-one derivatives” (Hoffman-La Roche Inc., priority 2001, dated 2003) are described below.

For data set [1], the target named is T1, recombinant rat mGluR2 expressed in CHO cells (Rattus norvegicus, UniProt P31421).
T1 construct: expressed in transfected cells; vector pcDNA I-amp, construct pcD1mGR2
Nature of the data set: [3H]-LY354740 binding on mGlu2 transfected CHO cell membranes (displacement binding assay).
Description: These values were obtained by indirect measurement of the affinity of the compounds for the recombinant rat mGluR2 expressed in CHO cells using a displacement binding assay with 3H-LY354740.
Transfection and Cell Culture
cDNA encoding the rat mGlu2 receptor protein in pBluescript II was obtained from Prof. S. Nakanishi (Kyoto, Japan), and subcloned into the eukaryotic expression vector pcDNA I-amp from Invitrogen (NV Leek, The Netherlands). This vector construct (pcD1mGR2) was co-transfected with a psvNeo plasmid encoding the gene for neomycin resistance, into CHO cells by a modified calcium phosphate method described by Chen & Okayama (1988). The cells were maintained in Dulbecco's Modified Eagle medium with reduced L-glutamine (2 mM final concentration) and 10% dialysed foetal calf serum from Gibco BRL (Basel, Switzerland). Selection was made in the presence of G-418 (1000 ug/ml final). Clones were identified by reverse transcription of 5 μg total RNA, followed by PCR using mGlu2 receptor specific primers 5′-[sequence]-3′ and 5′-[sequence]-3′ in 60 mM Tris HCl (pH 10), 15 mM (NH4)2SO4, 2 mM MgCl2, 25 units/ml Taq Polymerase with 30 cycles annealing at 60° C. for 1 min., extention at 72° C. for 30 s, and 1 min. 95° C. denaturation.
Cells, cultured as above, were harvested and washed three times with cold PBS and frozen at −80° C. The pellet was resuspended in cold 20 mM HEPES-NaOH buffer containing 10 mM EDTA (pH 7.4), and homogenised with a polytron (Kinematica, AG, Littau, Switzerland) for 10 s at 10 000 rpm. After centrifugation for 30 min. at 4° C., the pellet was washed once with the same buffer, and once with cold 20 mM HEPES-NaOH buffer containing 0.1 mM EDTA, (pH 7.4). Protein content was measured using the Pierce method (Socochim, Lausanne, Switzerland) using bovine serum albumin as standard.
After thawing, the membranes were resuspended in cold 50 mM Tris-HCl buffer containing 2 mM MgCl2 and 2 mM CaCl2, (pH 7) (binding buffer). The final concentration of the membranes in the assays was 25 µg protein/ml. Inhibition experiments were performed with membranes incubated with 10 nM [^3H]-LY354740 at room temperature, for 1 hour, in presence of various concentrations of the compound to be tested. Following the incubations, membranes were filtered onto Whatmann GF/C glass fiber filters and washed 5 times with cold binding buffer. Non specific binding was measured in the presence of 10 μM DCG IV. After transfer of the filters into plastic vials containing 10 ml of Ultima-gold scintillation fluid (Packard, Zürich, Switzerland), the radioactivity was measured by liquid scintillation in a Tri-Carb 2500 TR counter (Packard, Zürich, Switzerland).
The inhibition curves were fitted with a four parameter logistic equation giving IC50 values, and Hill coefficients and the Ki values were calculated using the Cheng and Prusoff equation (Cheng, Y. and Prusoff, W. H., Biochem. Pharmacol. 1973, 22, 3099-3108). A small Ki value expresses high affinity of the compound towards the receptor.

T1 sequence (P31421 19-872): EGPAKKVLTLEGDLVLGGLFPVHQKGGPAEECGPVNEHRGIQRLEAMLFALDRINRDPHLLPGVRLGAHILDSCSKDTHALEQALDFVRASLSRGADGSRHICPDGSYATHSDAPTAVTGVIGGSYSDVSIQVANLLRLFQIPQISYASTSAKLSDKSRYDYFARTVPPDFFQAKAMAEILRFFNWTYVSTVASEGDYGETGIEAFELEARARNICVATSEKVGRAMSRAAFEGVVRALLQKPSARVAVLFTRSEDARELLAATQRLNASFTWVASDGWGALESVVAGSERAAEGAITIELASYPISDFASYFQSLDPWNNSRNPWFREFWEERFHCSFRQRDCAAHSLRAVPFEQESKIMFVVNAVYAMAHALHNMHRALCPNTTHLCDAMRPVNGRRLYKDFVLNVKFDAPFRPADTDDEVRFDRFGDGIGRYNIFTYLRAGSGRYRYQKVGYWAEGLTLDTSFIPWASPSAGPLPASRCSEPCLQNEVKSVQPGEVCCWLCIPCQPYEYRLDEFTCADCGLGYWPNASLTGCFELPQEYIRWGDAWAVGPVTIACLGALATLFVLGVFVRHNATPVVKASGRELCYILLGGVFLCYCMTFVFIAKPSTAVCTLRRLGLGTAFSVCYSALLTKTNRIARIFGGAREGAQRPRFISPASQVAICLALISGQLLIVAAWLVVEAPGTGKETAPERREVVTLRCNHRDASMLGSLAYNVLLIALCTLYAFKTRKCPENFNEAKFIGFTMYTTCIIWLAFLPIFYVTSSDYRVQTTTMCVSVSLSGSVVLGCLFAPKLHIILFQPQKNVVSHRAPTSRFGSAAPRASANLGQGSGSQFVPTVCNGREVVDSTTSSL

Regarding `CN(C)c1cc2c(cc1-c1cccc(F)c1F)NC(=O)CC(c1cccc(-n3ccnn3)c1)=N2` [Example 8, 8-(2,3-Difluoro-phenyl)-7-dimethylamino-4-(3-[1,2,3]triazol-1-yl-phenyl)-1,3-dihydro-benzo[b][1,4]diazepin-2-one], the melting point lay within 197 to 199 °C. Also, in data set [1], the inhibition constant (Ki) was 70 nM.

Regarding `CN(C)c1cc2c(cc1Cl)NC(=O)CC(c1cccc(-n3cccn3)c1)=N2` [Example 52, 8-Chloro-7-dimethylamino-4-(3-pyrazol-1-yl-phenyl)-1,3-dihydro-benzo[b][1,4]diazepin-2-one], the melting point was in the range of 231 to 234 °C. Also, in data set [1], the inhibition constant (Ki) turned out to be 110 nM.

With `CCCN(C)c1cc2c(cc1C)NC(=O)CC(c1cccc(C#N)c1)=N2` [Example 92, 3-[7-Methyl-8-(methyl-propyl-amino)-4-oxo-4,5-dihydro-3H-benzo[b][1,4]diazepin-2-yl]-benzonitrile], the melting point was 195 °C. Also, the Ki in data set [1] stood at 25 nM.

On to `CN(C)c1cc2c(cc1C(F)(F)F)NC(=O)CC(c1cccc(-c3nnc(CO)s3)c1)=N2` [Example 204, 7-Dimethylamino-4-[3-(5-hydroxymethyl-[1,3,4]thiadiazol-2-yl)-phenyl]-8-trifluoromethyl-1,3-dihydro-benzo[b][1,4]diazepin-2-one], for which the melting point is 242 to 246 °C. Moreover, in data set [1], the inhibition constant Ki worked out at 17 nM.

As for `COCCN(C)c1cc2c(cc1Cl)NC(=O)CC(c1cccc(-c3cc(C)no3)c1)=N2` [Example 11], the melting point is 182 °C. In data set [1], the Ki came out at 25 nM.

On to `CN(C)c1cc2c(cc1Cl)NC(=O)CC(c1cccc(-c3ccnn3C)c1)=N2` [Example 16, 8-Chloro-7-dimethylamino-4-[3-(2-methyl-2H-pyrazol-3-yl)-phenyl]-1,3-dihydro-benzo[b][1,4]diazepin-2-one], for which the melting point came out at 225 °C. The Ki in data set [1] was found to be 23 nM.

In the case of `CCN(CC)c1cc2c(cc1Cl)NC(=O)CC(c1cccc(-n3nncc3CO)c1)=N2` [Example 30, 8-Chloro-7-(diethyl-amino)-4-[3-(5-hydroxymethyl-[1,2,3]triazol-1-yl)-phenyl]-1,3-dihydro-benzo[b][1,4]diazepin-2-one], the melting point was 208 °C (dec.). For the same compound, the inhibition constant Ki in data set [1] came out at 44 nM.

`Cc1cc(-c2cccc(C3=Nc4cc(OCC(F)(F)F)c(-c5ccccc5F)cc4NC(=O)C3)c2)on1` [Example 24, 8-(2-Fluoro-phenyl)-4-[3-(3-methyl-isoxazol-5-yl)-phenyl]7-(2,2,2-trifluoro-ethoxy)-1,3-dihydro-benzo[b][1,4]diazepin-2-one] came in with a melting point of 218 to 220 °C. Further, the Ki in data set [1] is 30 nM.

The compound `CC(C)CN(C)c1cc2c(cc1C(F)(F)F)NC(=O)CC(c1cccc(-n3cncn3)c1)=N2` [Example 174, 7-(Isobutyl-methyl-amino)-4-(3-[1,2,4]triazol-1-yl-phenyl)-8-trifluoromethyl-1,3-dihydro-benzo[b][1,4]diazepin-2-one] gave a melting point of 198 °C. In data set [1], the Ki worked out at 12 nM.

In turn, `O=C1CC(c2cccc(-n3nncc3CO)c2)=Nc2cc(N3CCCC3)c(Cl)cc2N1` [Example 32, 8-Chloro-4-[3-(5-hydroxymethyl-[1,2,3]triazol-1-yl)-phenyl]-7-pyrrolidin-1-yl-1,3-dihydro-benzo[b][1,4]diazepin-2-one] showed a melting point of 193 to 197 °C. Further, the Ki in data set [1] is 19 nM.

Compound `CCCc1oc(C)nc1-c1cccc(C2=Nc3cc(N(C)C)c(C(F)(F)F)cc3NC(=O)C2)c1` [Example 212, 7-Dimethylamino-4-[3-(2-methyl-5-propyl-oxazol-4-yl)-phenyl]-8-trifluoromethyl-1,3-dihydro-benzo[b][1,4]diazepin-2-one] yielded a melting point of 211 to 212 °C. The Ki in data set [1] was 46 nM.

`CCNc1nc(-c2cccc(C3=Nc4cc(N(C)C)c(Cl)cc4NC(=O)C3)c2)cs1` [Example 195, 8-Chloro-7-dimethylamino-4-[3-(2-ethylamino-thiazol-4-yl)-phenyl]-1,3-dihydro-benzo[b][1,4]diazepin-2-one] registered a melting point of 122 to 123 °C. In addition, the Ki in data set [1] was determined as 480 nM.
